# From patent publication US20240365785A1, “ACTIVE COMPOUND COMBINATIONS AND FUNGICIDE COMPOSITIONS COMPRISING THOSE” (Bayer Aktiengesellschaft, priority 2021, published 2024)
# Experiments:
# Assay type in all cases: cell-based
# Details in all cases: alone
# Colletotrichum coccodes = assay: in vitro-Test with Colletotrichum coccodes
# Alternaria alternata = assay: in vitro-Test with Alternaria alternata
# Fusarium culmorum = assay: in vitro-Test with Fusarium culmorum
# Procedure: Wells of 96-well microtiter plates are filled with 10 μl of a preparation of test compound or compound combination in methanol+emulsifier alkylaryl-polyglycol-ether. Thereafter, the solvent is evaporated in a hood. At the next step, into each well 100 μl of liquid potato dextrose medium is given, that has been amended with an appropriate concentration of spores or mycelium suspension of the test fungus.
# With the aid of a photometer the extinction in all wells is measured at the wavelength of 620 nm.
# The microtiter plates are incubated at 20° C. and 85% relative humidity. The inhibition of growth is determined again photometrically 3-5 days after the application. Efficacy is calculated in relation to the untreated control, 0% efficacy means fungal growth as high as in untreated control while 100% efficacy means no fungal growth is measured.
# Diaporthe citri = assay: in vitro-Test with Diaporthe citri
# Botrytis cinerea = assay: in vitro-Test with Botrytis cinerea
# Cordana musae = assay: in vitro-Test with Cordana musae
compound,measurement,setting,value
"CCC(=O)Oc1c(OC)ccnc1C(=O)N[C@@H](C)C(=O)O[C@@H](C)[C@@H](C)c1ccccc1C [(3.017) Metarylpicoxamid, metarylpicoxamid, reference compound]",Efficacy %,Colletotrichum coccodes; 0.08 ppm,19%
same,Efficacy %,Colletotrichum coccodes; 0.4 ppm,26%
same,Efficacy %,Alternaria alternata; 10 ppm,50%
same,Efficacy %,Fusarium culmorum; 0.08 ppm,10%
same,Efficacy %,Fusarium culmorum; 2 ppm,0%
same,Efficacy %,Fusarium culmorum; 10 ppm,4%
same,Efficacy %,Diaporthe citri; 2 ppm,89%
same,Efficacy %,Diaporthe citri; 10 ppm,89%
same,Efficacy %,Botrytis cinerea; 0.8 ppm,0%
same,Efficacy %,Botrytis cinerea; 10 ppm,20%
same,Efficacy %,Cordana musae; 0.08 ppm,44%
"COC(=O)C(O)(Cn1cncn1)c1ccc(Oc2ccc(Cl)cc2)cc1Cl (centres unmarked) [(I-1), Methyl 2-[2-chloro-4-(4-chlorophenoxy)phenyl]-2-hydroxy-3-(1,2,4-triazol-1-yl)propanoate]",Efficacy %,Colletotrichum coccodes; 0.02 ppm,0%
same,Efficacy %,Colletotrichum coccodes; 0.1 ppm,0%
same,Efficacy %,Colletotrichum coccodes; 2.5 ppm,91%
same,Efficacy %,Alternaria alternata; 0.02 ppm,3%
same,Efficacy %,Alternaria alternata; 0.1 ppm,0%
same,Efficacy %,Alternaria alternata; 0.5 ppm,18%
same,Efficacy %,Fusarium culmorum; 2.5 ppm,25%
same,Efficacy %,Diaporthe citri; 0.02 ppm,0%
same,Efficacy %,Diaporthe citri; 0.1 ppm,0%
same,Efficacy %,Diaporthe citri; 2.5 ppm,100%
same,Efficacy %,Botrytis cinerea; 0.02 ppm,1%
same,Efficacy %,Botrytis cinerea; 0.1 ppm,0%
same,Efficacy %,Cordana musae; 0.02 ppm,14%
same,Efficacy %,Cordana musae; 0.5 ppm,54%
same,Efficacy %,Cordana musae; 2.5 ppm,97%
